Experimental data: ChEMBL document CHEMBL3232943, “SAR study on arylmethyloxyphenyl scaffold: looking for a P-gp nanomolar affinity” (Eur J Med Chem, 2014); call rule not given here

Columns and labels:
[1] = target: T1, ATP-dependent translocase ABCB1 (Homo sapiens, UniProt P08183); experiment: Inhibition of P-glycoprotein (unknown origin) expressed in MDCK cells assessed as reduction of calcein-AM transport after 30 mins by fluorescence assay; format: cell-based
[2] = target: Multidrug resistance-associated protein 1 (Homo sapiens, UniProt P33527); experiment: Modulation of MRP1 (unknown origin) expressed in MDCK cells at 100 uM; format: cell-based
Multidrug resistance-associated protein 1, sequence (P33527 whole entry): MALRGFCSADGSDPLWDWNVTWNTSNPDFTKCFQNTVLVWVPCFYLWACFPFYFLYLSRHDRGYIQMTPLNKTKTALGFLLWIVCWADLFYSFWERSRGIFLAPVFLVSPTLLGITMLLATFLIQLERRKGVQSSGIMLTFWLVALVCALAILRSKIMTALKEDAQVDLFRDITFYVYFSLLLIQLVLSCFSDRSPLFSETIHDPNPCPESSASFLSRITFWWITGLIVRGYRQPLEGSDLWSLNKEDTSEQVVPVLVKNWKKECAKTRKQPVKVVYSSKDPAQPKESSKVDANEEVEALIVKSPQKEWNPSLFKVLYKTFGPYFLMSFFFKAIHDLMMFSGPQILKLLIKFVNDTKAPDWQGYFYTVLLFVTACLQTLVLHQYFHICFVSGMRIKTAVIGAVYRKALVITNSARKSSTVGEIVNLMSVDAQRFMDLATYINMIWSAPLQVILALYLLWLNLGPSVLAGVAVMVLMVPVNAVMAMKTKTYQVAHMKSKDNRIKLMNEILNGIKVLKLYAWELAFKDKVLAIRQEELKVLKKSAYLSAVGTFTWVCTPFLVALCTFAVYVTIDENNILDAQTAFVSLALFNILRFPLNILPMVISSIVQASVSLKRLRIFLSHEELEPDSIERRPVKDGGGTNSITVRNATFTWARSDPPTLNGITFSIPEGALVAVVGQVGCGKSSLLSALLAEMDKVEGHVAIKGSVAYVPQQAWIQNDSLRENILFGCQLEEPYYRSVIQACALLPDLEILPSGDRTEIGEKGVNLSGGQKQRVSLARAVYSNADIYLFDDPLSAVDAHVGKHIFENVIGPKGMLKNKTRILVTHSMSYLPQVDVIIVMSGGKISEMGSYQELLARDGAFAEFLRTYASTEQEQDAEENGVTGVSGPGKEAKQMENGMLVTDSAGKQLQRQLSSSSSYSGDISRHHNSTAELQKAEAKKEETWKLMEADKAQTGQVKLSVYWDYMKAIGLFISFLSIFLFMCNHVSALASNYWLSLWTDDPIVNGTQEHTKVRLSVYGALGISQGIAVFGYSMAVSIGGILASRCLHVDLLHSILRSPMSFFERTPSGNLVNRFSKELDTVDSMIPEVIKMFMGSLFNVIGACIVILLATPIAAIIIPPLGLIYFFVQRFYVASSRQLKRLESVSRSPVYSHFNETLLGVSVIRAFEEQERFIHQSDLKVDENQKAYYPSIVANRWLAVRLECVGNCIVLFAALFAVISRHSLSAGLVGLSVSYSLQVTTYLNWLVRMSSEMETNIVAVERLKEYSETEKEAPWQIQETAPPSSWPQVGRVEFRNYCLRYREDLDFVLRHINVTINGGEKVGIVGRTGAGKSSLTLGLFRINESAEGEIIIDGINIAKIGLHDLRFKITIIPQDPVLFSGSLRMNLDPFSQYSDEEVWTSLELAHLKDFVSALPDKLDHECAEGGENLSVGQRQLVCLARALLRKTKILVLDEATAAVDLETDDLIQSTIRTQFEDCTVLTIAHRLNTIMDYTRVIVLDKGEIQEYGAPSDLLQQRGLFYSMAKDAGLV

[3] = Efflux ratio of permeability from basolateral to apical side over apical to basolateral side in human Caco2 cells at 100 uM after 30 mins by UV spectroscopy; format: ADME, cell-based; details: Caco-2
[4] = target: T1, ATP-dependent translocase ABCB1; experiment: Activation of ATPase activity of MDR1 (unknown origin) expressed in MDCK cells assessed as reduction of reduction of ATP level at 100 uM after 2 hrs by luminescence/ATPlite assay; format: cell-based; design: scale not given: the % may be the effect or the level left
[5] = Cytotoxicity against MDR1 expressing MDCK cells assessed as cell viability at 1 uM after 48 hrs by MTT assay in presence of MC18 P-gp inhibitor; format: ADME, cell-based, Canis lupus familiaris; details: dog, with MC18 (P-gp inhibitor), concentration not stated, read-out: Activity
MDCK = experiment: Cytotoxicity against MDR1 expressing MDCK cells assessed as cell viability at 1 uM after 24 hrs by MTT assay; format: ADME, cell-based, Canis lupus familiaris; details: dog
[6] = Cytotoxicity against MDR1 expressing MDCK cells assessed as cell viability at 1 uM after 48 hrs by MTT assay; format: ADME, cell-based, Canis lupus familiaris; details: dog, read-out: Activity

T1 sequence (P08183 whole entry): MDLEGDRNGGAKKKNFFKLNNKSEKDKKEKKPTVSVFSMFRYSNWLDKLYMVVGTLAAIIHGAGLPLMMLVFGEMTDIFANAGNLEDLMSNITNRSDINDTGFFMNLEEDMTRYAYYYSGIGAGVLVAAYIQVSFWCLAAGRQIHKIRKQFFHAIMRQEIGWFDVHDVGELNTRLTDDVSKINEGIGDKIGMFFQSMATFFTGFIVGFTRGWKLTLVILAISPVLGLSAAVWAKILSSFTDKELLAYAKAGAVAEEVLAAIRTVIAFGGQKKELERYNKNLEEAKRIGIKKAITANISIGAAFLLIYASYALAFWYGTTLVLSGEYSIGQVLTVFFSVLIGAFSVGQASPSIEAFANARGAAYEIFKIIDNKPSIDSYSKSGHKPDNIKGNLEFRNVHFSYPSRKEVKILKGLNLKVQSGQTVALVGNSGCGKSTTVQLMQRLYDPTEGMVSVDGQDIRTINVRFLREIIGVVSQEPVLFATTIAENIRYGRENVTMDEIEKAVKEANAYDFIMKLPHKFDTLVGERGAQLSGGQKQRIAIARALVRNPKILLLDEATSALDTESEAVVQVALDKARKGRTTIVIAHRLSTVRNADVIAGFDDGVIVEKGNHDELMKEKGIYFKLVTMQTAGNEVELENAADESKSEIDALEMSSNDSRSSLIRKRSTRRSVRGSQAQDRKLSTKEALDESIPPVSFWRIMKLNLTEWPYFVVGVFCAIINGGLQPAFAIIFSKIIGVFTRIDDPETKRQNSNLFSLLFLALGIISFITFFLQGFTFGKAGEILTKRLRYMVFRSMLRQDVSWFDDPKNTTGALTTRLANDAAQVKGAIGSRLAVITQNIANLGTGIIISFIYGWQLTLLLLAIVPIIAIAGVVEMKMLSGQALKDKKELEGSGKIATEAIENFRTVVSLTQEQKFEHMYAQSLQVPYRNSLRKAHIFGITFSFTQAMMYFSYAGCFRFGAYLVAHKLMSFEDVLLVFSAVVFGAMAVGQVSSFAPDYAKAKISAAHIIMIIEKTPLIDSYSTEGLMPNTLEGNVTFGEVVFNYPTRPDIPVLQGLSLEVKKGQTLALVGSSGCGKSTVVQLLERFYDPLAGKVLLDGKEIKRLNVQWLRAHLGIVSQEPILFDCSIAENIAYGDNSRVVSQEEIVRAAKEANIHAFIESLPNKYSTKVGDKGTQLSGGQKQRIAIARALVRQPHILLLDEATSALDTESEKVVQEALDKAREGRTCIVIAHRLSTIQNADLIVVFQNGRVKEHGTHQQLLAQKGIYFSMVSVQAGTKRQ

| SMILES | EC50 [1] | Activity [2] | efflux ratio at 0.5 h, 100 µM [3] | Activity [4] | viability at 48 h, 1 µM [5] | Activity (MDCK) | viability at 48 h, 1 µM [6] |
| --- | --- | --- | --- | --- | --- | --- | --- |
| COc1cccc(CCc2ccccc2OCc2cc(OC)c(OC)c(OC)c2)c1OC | 0.3 µM | Not Active | 3.23 | Active |  |  |  |
| COc1cccc(CCc2ccccc2NC(=O)c2cccnc2)c1 | 43.7 µM | Not Active |  | Active |  |  |  |
| COc1cccc(CCc2ccccc2OCc2cccs2)c1 | > 100 µM | Not Active |  | Active |  |  |  |
| COc1cc(CCc2ccccc2OCc2cc(OC)c(OC)c(OC)c2)cc(OC)c1OC | 0.0071 µM | Not Active | 3.96 | Active | 63% | Non-toxic | 40% |
| COc1ccc(CCc2ccccc2OCc2ccc(OC)c(OC)c2)cc1OC | 2.1 µM | Not Active | 2.77 | Not Active |  |  |  |
| COc1cc2c(cc1OC)CN(CCc1ccc(NC(=O)c3cc(OC)c(OC)cc3NC(=O)c3cnc4ccccc4c3)cc1)CC2 [TARIQUIDAR] |  |  | 22 | 30% |  |  |  |
| COc1cccc(CCc2ccccc2OCc2ccc3c(c2)OCO3)c1 | > 100 µM | Not Active |  | Active |  |  |  |
| COc1cccc(CCc2ccccc2OCc2ncccn2)c1 | 32.5 µM | Not Active | 2.91 | Active |  |  |  |
| COc1ccc(COc2ccccc2CCc2cc(OC)c(OC)c(OC)c2)cc1OC | 0.9 µM | Not Active | 3.8 | Active |  |  |  |
| COc1cc(COc2ccccc2CCc2cc(OC)c(OC)c(OC)c2)cc(OC)c1 | 1.3 µM | Not Active |  | Not Active |  |  |  |
| COc1cccc(CCc2ccccc2OCc2cc(OC)c(OC)c(OC)c2)c1 | 3.1 µM | Not Active | 3.14 | Not Active |  |  |  |
| Clc1ccc(COc2ccccc2CCc2ccccc2)c(Cl)c1 | > 100 µM | Not Active |  |  |  |  |  |
| COc1cccc(CCc2ccccc2NC(=O)c2cccc(OC)c2)c1 | 10.9 µM | Not Active | 4.1 | Active |  |  |  |
| COc1cccc(CCc2ccccc2NCc2ccncc2)c1 | 11.5 µM | Not Active | 3 | Active |  |  |  |
| COc1cccc(COc2ccccc2CCc2cc(OC)c(OC)c(OC)c2)c1OC | 3.2 µM | Not Active | 3.45 | Active |  |  |  |
